Data reported in patent publication US11844794B2, “Pharmaceutical compositions” (ADEPTIO PHARMACEUTICALS LIMITED, priority 2017, dated 2023).

Key:
[1] = thermal gravimetric analysis (TGA) / thermal stability
Experimental: Differential scanning calorimetry (DSC) was carried out on the sample “as is” using a Mettler DSC1 instrument. The sample was weighed I an aluminium pan, covered with a pierced lid, and then crimped and analysed from 30-300° C. at 10° C./minute.
Thermal gravimetric analysis was performed on the sample “as is” using a Mettler 851^e TGA instrument. The sample was weighed in an alumina crucible and analysed from 30-300° C. at 10° C./minute.

[2] = solid form stability in slurry / polymorphism by XRPD; format: physicochemical
[3] = equilibrium aqueous solubility by HPLC; format: physicochemical; conditions: water, thermodynamic from solid
Experimental: The aqueous solubilities of salts were measured by an equilibrium method in which an amount of the salt was weighed into a 2 ml vial equipped with a magnetic stirrer bar and water added. In cases where complete dissolution was observed, more material was added until the sample was exhausted. The slurry was then stirred for seven days before isolating the solids by centrifuge-filtration. The solids were analysed by XRPD and the filtrates were analysed by HPLC to determine the amount of (+)-alpha-dihydrotetrabenazine salt in solution. The solubilities were calculated against a calibration curve established for a (+)-alpha-dihydrotetrabenazine sample of known concentration.

[4] = pharmacokinetics after oral administration to male Beagle dogs; format: in vivo, Beagle dog
Experimental: Doses were administered orally, via gavage, at a dose volume of 2.00 mL/kg yielding the target dose level of 1.50 mg/kg. Following dosing, 10 mL of tap water was flushed down the gavage to ensure the entire dose was dispensed. Following dosing over four sessions each with one of the test materials, serial whole blood samples (circa. 1.3 mL) were collected from a jugular vein then placed into K2 EDTA treated tubes pre-dose and then 0.25, 0.50, 1, 2, 3, 4, 6, 12 and 24 hours post dose. Blood samples were placed immediately on a cool-block before being centrifuged within 15 minutes at 3,000×g, 10 minutes, 4° C. and resultant plasma drawn off. […] Doses were administered orally, via gavage, at a dose volume of 2.00 mL/kg yielding the target dose level of 1.50 mg/kg. Following dosing, 10 mL of tap water was flushed down the gavage to ensure the entire dose was dispensed. Following dosing over four sessions each with one of the test materials, serial whole blood samples (circa. 1.3 mL) were collected from a jugular vein then placed into K2 EDTA treated tubes pre-dose and then 0.25, 0.50, 1, 2, 3, 4, 6, 12 and 24 hours post dose. Blood samples were placed immediately on a cool-block before being centrifuged within 15 minutes at 3,000×g, 10 minutes, 4° C. and resultant plasma drawn off.

[5] = moisture-sorption analysis; format: physicochemical; conditions: for moisture uptake: 25° C.
Experimental: Moisture-sorption analysis was carried out using a Hiden IGA Sorp moisture-sorption analyser. […] The sample was then subjected to an isothermal (at 25° C.) adsorption scan from 40 to 90% relative humidity in steps of 10%. The sample was allowed to equilibrate to an asymptotic weight at each point for a maximum of four hours. […] An adsorption scan was then performed from 0 to 40% relative humidity inn steps of 10%. The sample was dried for two hours at 60° C. and 0% relative humidity, and the resulting solid was analysed by XRPD.

[6] = male, Beagle (HsdRcc:DOBE), dog, plasma, po, 1.5 mg/kg, Plasma concentration of (+)-α-dihydrotetrabenazine, Male 1, oral 1.50 mg/kg (freebase equivalent)
[7] = male, Beagle (HsdRcc:DOBE), dog, plasma, po, 1.5 mg/kg, Plasma concentration of (+)-α-dihydrotetrabenazine, Male 2, oral 1.50 mg/kg (freebase equivalent)
[8] = male, Beagle (HsdRcc:DOBE), dog, plasma, po, 1.5 mg/kg, Plasma concentration of (+)-α-dihydrotetrabenazine, Male 3, oral 1.50 mg/kg (freebase equivalent)
[9] = male, Beagle (HsdRcc:DOBE), dog, plasma, po, 1.5 mg/kg, Plasma concentration of (+)-α-dihydrotetrabenazine, Mean of 3 dogs, oral 1.50 mg/kg (freebase equivalent)
[10] = male, Beagle (HsdRcc:DOBE), dog, plasma, po, 1.5 mg/kg, Plasma concentration of (+)-α-dihydrotetrabenazine, Mean of 3 dogs, oral 1.50 mg/kg (freebase equivalent), BLQ treated as zero

COc1cc2c(cc1OC)[C@H]1C[C@@H](O)[C@H](CC(C)C)CN1CC2.O=C(O)CCC(=O)O [(+)-α-dihydrotetrabenazine succinate]
TGA weight loss ([1]; below 150° C.): No weight loss | thermal stability ([1]; from DSC and TGA): good thermal stability | polymorphism [2]: no evidence of polymorphism | solubility thermodynamic at 7 days [3]: > 350 mg/mL | time post dose at which Cmax was observed ([4]; dog, in vivo, po, 1.5 mg/kg): 0.33 h | mean exposure ([4]; male Beagle dogs, oral 1.50 mg/kg (freebase equivalent)): 71.8782 ng·mL·h | concentration at 0.25 h [4, 6]: 66.7 ng/mL | concentration at 0.5 h [4, 6]: 47.6 ng/mL | concentration at 1 h [4, 6]: 23.4 ng/mL | concentration at 2 h [4, 6]: 7.04 ng/mL | concentration at 3 h [4, 6]: 2.48 ng/mL | concentration at 4 h [4, 6]: 1.03 ng/mL | concentration at 6 h [4, 6]: 0.304 ng/mL | concentration at 0.5 h [4, 7]: 32.4 ng/mL | concentration at 1 h [4, 7]: 14.8 ng/mL | concentration at 2 h [4, 7]: 3.65 ng/mL | concentration at 3 h [4, 7]: 1.23 ng/mL | concentration at 4 h [4, 7]: 0.531 ng/mL | concentration at 0.5 h [4, 8]: 83.1 ng/mL | concentration at 1 h [4, 8]: 49.2 ng/mL | concentration at 2 h [4, 8]: 21.7 ng/mL | concentration at 3 h [4, 8]: 10.6 ng/mL | concentration at 4 h [4, 8]: 6.21 ng/mL | concentration at 6 h [4, 8]: 1.68 ng/mL | concentration at 12 h [4, 8]: 0.212 ng/mL | concentration at 0 h ([4]; male, Beagle (HsdRcc:DOBE), dog, plasma, po, 1.5 mg/kg, Plasma concentration of (+)-α-dihydrotetrabenazine, Mean of 3 dogs, oral 1.50 mg/kg (freebase equivalent), 0 h (pre-dose), BLQ treated as zero): 0 ng/mL | concentration at 0.25 h [4, 9]: 46 ng/mL | concentration at 0.5 h [4, 9]: 54.4 ng/mL | concentration at 1 h [4, 9]: 29.1 ng/mL | concentration at 2 h [4, 9]: 10.8 ng/mL | concentration at 3 h [4, 9]: 4.77 ng/mL | concentration at 4 h [4, 9]: 2.59 ng/mL | concentration at 6 h [4, 10]: 0.66 ng/mL | concentration at 12 h [4, 10]: 0.07 ng/mL | concentration at 24 h ([4]; male, Beagle (HsdRcc:DOBE), dog, plasma, po, 1.5 mg/kg, Plasma concentration of (+)-α-dihydrotetrabenazine, Mean of 3 dogs, oral 1.50 mg/kg (freebase equivalent), 24 h, BLQ treated as zero): 0 ng/mL | Cmax ([4]; male, Beagle, dog, in vivo, po, 1.5 mg/kg): 64.3 ng/mL | moisture uptake ([5]; 60% relative humidity): 0.6 weight % | moisture uptake ([5]; 90% relative humidity): 1.3 weight % | XRPD pattern after moisture sorption studies ([5]; dried at 60° C. and 0% relative humidity): No change | hygroscopicity ([5]; gravimetric moisture-sorption): slightly hygroscopic
